Test [1] deals with T1, 5 alpha reductase type II (Homo sapiens, UniProt P31213).
T1 construct: made in house; host or cells: genetically modified yeast
T1 sequence (P31213 1-254): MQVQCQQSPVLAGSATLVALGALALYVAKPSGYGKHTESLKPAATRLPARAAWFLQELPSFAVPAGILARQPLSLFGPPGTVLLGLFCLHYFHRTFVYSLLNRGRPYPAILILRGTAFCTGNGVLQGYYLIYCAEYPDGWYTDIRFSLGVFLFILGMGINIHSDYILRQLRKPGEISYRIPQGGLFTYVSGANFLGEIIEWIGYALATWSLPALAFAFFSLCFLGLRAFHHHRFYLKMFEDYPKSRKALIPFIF
As to the kind of experiment: Type II 5 alpha reductase inhibition (14C testosterone conversion). Type of test: biochemical. To be noted: pH 5.0. An excerpt:
(§1) Determination of the 5 alpha reductase inhibitory activities by Syringa vulgaris extracts, verbascoside and isoverbascoside in comparison to Serenoa repens extracts. Said determination, has been performed using enzymes (5 alpha reductase, type I and type II) produced by genetically modified yeast. Enzyme activities have been determined in the presence of Syringa vulgaris and Serenoa repens extracts, verbascoside isoverbascoside.
Determination of the type II 5 alpha reductase activity has been performed in an analogous manner to that just described, with the exception of a different pH value for the 0.1 M Tris-citrate buffer (pH 5.0).
In both assays, the steroids have been extracted using 5 ml of methylene chloride. The extracts have then been dried under a stream of nitrogen and the dried residues obtained have, been dissolved in 20 μl of a chloroform-methanol mixture (2:1 v/v). An aliquot of said mixture has been deposited on the surface of a silica gel TLC plate. […] For quantification of the results, the spots have been scraped from the TLC plate and extracted with 2 ml of ethyl acetate. The extracts obtained have been analysed, using scintillation fluid, with the aid of a Wallach […]. The enzyme activity has been calculated from the percentage conversion (C %) of the substrate into final product:
(§2) C %=[counted product/(counted substrate+product)]×100.

The test system of test [2] is platelets. Put plainly: ADP induced platelet aggregation in platelet rich plasma. Type of test: cell-based, rabbit. To be noted: 1.0 mg/ml. The procedure: (§3) Platelet enriched rabbit plasma has been used to assess the platelet anti-aggregating and disaggregating properties of Syringa vulgaris Extract 1, verbascoside and isoverbascoside. Platelet rich plasma has been obtained from rabbit venous blood by mixing it with a 3.8% sodium citrate solution (9:1 v/v). The solution has then been centrifuged at 460×g for 20 minutes. The supernatant has been collected and immediately used for the aggregation assays. Platelet aggregation has been recorded using a Chronolog “Ionised calcium platelet aggregometer” (Chrono-log Co., USA). All measurements have been performed at 37° C. with continuous stirring. […] Then 10 μl of a solution of ADP (final concentration—10 μm) has been added and the luminous transmittance continuously recorded. The results are expressed as the DÒ/DÒÊ ratio, where DÒÊ and DÒ are the luminous transmittance values, in the absence and presence of extract respectively. Platelet disaggregation (the disappearance of pre formed aggregates) has been determined using the same luminous transmittance curve 10 minutes following the addition of ADP. The results are expressed as the DR/DRk ratio, where DRk and DR, are the luminous transmittance in the absence and presence of extract. […]

In test [3] the test system is platelets. As to the kind of experiment: Platelet disaggregation 10 minutes after ADP. Type of test: cell-based, rabbit. To be noted: 1.0 mg/ml. Here is the method:
as §3

For test [4], the target named is T2, 5 alpha reductase type I (Homo sapiens, UniProt P18405).
T2 construct: made in house; host or cells: genetically modified yeast
T2 sequence (P18405 1-259): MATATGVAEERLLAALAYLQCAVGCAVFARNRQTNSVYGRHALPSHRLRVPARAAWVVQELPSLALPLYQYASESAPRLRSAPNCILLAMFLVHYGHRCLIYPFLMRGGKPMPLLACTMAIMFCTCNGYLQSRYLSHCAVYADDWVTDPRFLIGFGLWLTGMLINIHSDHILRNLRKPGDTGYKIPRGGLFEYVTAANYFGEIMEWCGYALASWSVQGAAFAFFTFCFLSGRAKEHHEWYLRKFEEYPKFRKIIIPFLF
Put plainly: Type I 5 alpha reductase inhibition (14C testosterone conversion). The test is classed as biochemical. Particulars: pH 7.0. The procedure: as §1
Type I 5 alpha reductase activity has been assayed by incubating the enzyme in 0.1M Tris-citrate buffer (pH 7.0), containing 5 μM (^14C) radio-labelled testosterone (Amersham, Sweden) and 5 mM NADPH (Sigma) in a final volume of 5 ml. The solution thus obtained has been incubated for 1 hour at 37° C.
In both assays, the steroids have been extracted using 5 ml of methylene chloride. The extracts have then been dried under a stream of nitrogen and the dried residues obtained have, been dissolved in 20 μl of a chloroform-methanol mixture (2:1 v/v). […] For quantification of the results, the spots have been scraped from the TLC plate and extracted with 2 ml of ethyl acetate. The extracts obtained have been analysed, using scintillation fluid, with the aid of a Wallach […]. The enzyme activity has been calculated from the percentage conversion (C %) of the substrate into final product:
as §2

The nature of test [5]: Metal chelating activity (spectrophotometric), Ni2+. Type of test: binding. To be noted: chelation equilibrium constant, calculated for a pure phenylpropanoid. The text has this:
The chelating activities of Syringa vulgaris extracts, verbascoside and isoverbascoside in relation to Fe^2+, Fe^3+, Cu^2+ and Ni^2+ metal ions has been determined by means of spectrophotometric measurements using a Shimadzu 1770 UV spectrophotometer. The activities of chelating agents depends on the association constant (equilibrium) of their reactions with the metals according to the following reaction:
[formula] wherein Keq is the equilibrium constant equal to the ratio of concentrations at equilibrium of a complex and product of equilibrium concentrations of metal ions and a chelator:
[formula] The method used for determining chelating activity is well documented in the literature (Korkina L G, Afarras'er IB. Antioxidant and chelating properties of flavonoids. Adv. Pharmacol., 1997, 38:151-63). The results are expressed as Keg (M^−1) calculated for a pure phenylpropanoid. This way the chelating activity against ferrous (Fe II), ferric (Fe III), copper (Cu II) and nickel ions has been calculated.

For test [6], the system named is Trycophyton rubrum ATCC 28188. Put plainly: Multiple dilution antimycotic assay, Trycophyton rubrum. The test is classed as cell-based. To be noted: assayed at 0.625-5 mg/ml. Here is the method:
With the aim of identifying any potential antifungal activity in the Syringa vulgaris extracts, microbiological assays have been prepared, generally known as multiple dilution assays. Such assays have been performed using the following fungal strains: Trycophyton rubrum ATCC 28188 and Malassezia furfur ST 8036. Syringa vulgaris Extracts 1 and 2, verbascoside and isoverbascoside have been assayed at concentrations of […], 1.25 mg/ml, 2.5 mg/ml and 5 mg/ml. The fungal strains used for testing have been inoculated into culture-broth (in Tryptone soy broth medium, for Malassezia furfur the culture medium has been supplemented with 2 ml/100 ml of olive oil) containing Syringa vulgaris extracts 1 and 2, verbascoside and isoverbascoside at the concentrations described above. In parallel with these tests, culture broths containing the microbial strain alone have been prepared (controls). The culture-broths have, been incubated at 30° C. for a period of 28 days. Samples of the various culture-broths have been taken at 0, 7, 14, 21 and 28 days, with the aim of counting the number of CFU/ml in relation to the various fungal strains, by plating the cultures on solid medium. A certain number of serial dilutions have been prepared for each sample in order to determine the fungal load of each culture-broth. Each dilution has been assayed in triplicate on solid medium. […]

Data on two compounds can be found in patent US10456434B2, “Extracts obtained from cell line cultures from plants belonging to the Oleaceae family (e.g. Syringa vulgaris), their preparation and use” (CRODA ITALIANA S. P. A., priority 2005, dated 2019).

Structures are written as SMILES.

The IC50 is the point on the concentration scale where inhibition reaches its midpoint. Low readings indicate higher potency, high ones lower potency.

As to `C[C@@H]1O[C@@H](O[C@@H]2[C@@H](O)[C@H](OCCc3ccc(O)c(O)c3)O[C@H](CO)[C@H]2OC(=O)/C=C/c2ccc(O)c(O)c2)[C@H](O)[C@H](O)[C@H]1O` [Verbascoside, b-(3,4-dihydroxyphenyl)-ethyl-O-α-L-ramnopyranosyl (1″-3′)-b-D-(4′-O-caffeoil)-glucopyranoside], the IC50 in test [1] is 33.6 µM; in test [4], 20.8 µM. Moreover, in test [2], the “Aggregation (% with respect to control)” value stood at 24 ± 6 %. Moreover, in test [3], the “Disaggregation (% with respect to control)” value came to 73 ± 21%. Further, in test [5], the “Ni^2+ (Keq, M^−1)” value is 1427 ± 319 M⁻¹. In test [6], the “antimycotic activity towards Trycophyton rubrum (in words)” value is recorded as “activity comparable to Extract 1”.

For `CC1OC(OC2C(O)C(COC(=O)C=Cc3ccc(O)c(O)c3)OC(OCCc3ccc(O)c(O)c3)C2O)C(O)C(O)C1O` [Isoverbascoside, b-(3,4-dihydroxyphenyl)-ethyl-O-α-L-ramnopyranosyl(1″-3′)-b-D-(6′-O-caffeoil)glucopyranoside], the IC50 in test [1] is 32 µM; in test [4], 19.2 µM. Besides, the “Aggregation (% with respect to control)” value in test [2] came out at 25 ± 6 %. The “Disaggregation (% with respect to control)” value in test [3] was 75 ± 21%. Besides, the “Ni^2+ (Keq, M^−1)” value in test [5] is 1398 ± 362 M⁻¹. Moreover, the “antimycotic activity towards Trycophyton rubrum (in words)” value in test [6] is “activity comparable to Extract 1”.
